Experimental data as given in patent US6893821B2, “Agents that modulate DNA-PK activity and methods of use thereof” (The Regents of the University of California, priority 2000, dated 2005).

Key:
[1] = test system: bone marrow derived macrophages (BMDM); assay: Northern blot of IL-6 and IL-12 mRNA in BMDM; assay type: cell-based, mice
Protocol: PCR were performed under the following conditions by appropriate cycling number (94° C. for 30 seconds; 65° C. for 30 seconds; and 68° C. for 30 seconds). PCR products were visualized by electrophoresis on 1.5% TAE agarose gels after being stained with ethidium bromide. BMDM isolated from either wild type or Ku 70^−/− mice were treated with ISS (10 μg/ml) or LPS (10 μg/ml) or left untreated for 6.5 hours. Total RNA was isolated and 10 μg of total RNA was separated on 1% agarose gel and then transferred onto a nylon membrane. The membrane was probed with [^32P]-labeled IL-6 or IL-12 or GAPDH cDNA followed by autoradiography, as described previously. Chu et al. (1999) Immunity 11:1.
BMDM (2.5×10^5/well) from wt, or Ku70^−/− and Ku80^−/− mice were treated with LPS (1 μg/ml), ISS-ODN (5 μg/ml) or M-ODN (5 μg/ml) for 24 hours. IL-6 (A) or IL-12 (B) levels in the supernatants were determined by ELISA. Results are means±S.D, of 5 separate experiments for wt and Ku70^−/− and 3 separate experiments for Ku80^−/− mice. (C) BMDM were incubated with LPS (10 μg/ml) or ISS-ODN (5 μg/ml) for 6.5 hours. Total RNA was isolated and analyzed for the presence of IL-6, IL-12 and GAPDH messages by a Northern blot assay, as described in Example 1. Results are means±S.D. of 5 separate experiments for wt and Ku70^−/− and 3 separate experiments for Ku80^−/− mice. […]

[2] = target: T1, DNA-PK (Homo sapiens, UniProt P12956+P13010+P78527); assay: In vitro DNA-PK phosphorylation assay (affinity-purified DNA-PK, GST-p53 (1-70) substrate); assay type: biochemical; details: 30° C., 30 minutes; ps-ss ODNs 0-1, po-ISS-ODN 20-100, po-ds-ISS-ODN 0-10, genomic DNAs 1-5 ng/reaction
T1 construct: purchased Promega
Protocol: The in vitro DNA-PK phosphorylation assay was performed according to Hammarsten et al. (2000), supra, with modification. Briefly, affinity-purified DNA-PK (Promega, Mo.) was incubated with various DNA preparations (described below), 0.5 μg of GST-p53 (1-70) and 3.3 μCi of γ-^32p-ATP in a 20 μl reaction buffer (10 mM Tris-Cl, 5 mM MgCl2, 0.3 mM EDTA and 10 μM ATP) at 30° C. for 30 minutes. The reaction was stopped by addition of 4× loading buffer. The samples were boiled, loaded on 9% SDS-PAGE, transferred onto a PVDF membrane and visualized by autoradiography.
The ODNs (ps-ss) used include an ISS-ODN with an active CpG motif (AACGTT), a methylated ISS-ODN at the ^5C of the CpG dinucleotide (AA*CGTT) and various control ODNs. These ODNs were incubated at concentrations of 0, 0.1, 0.3, or 1 ng/reaction. The po-ISS-ODN was incubated at concentration of 20, 50 or 100 ng/reaction. The po-ds-ISS-ODN was incubated at concentration of 0, 0.5, 1, 2, 5 or 10 ng/reaction. The bacterial or calf thymus DNAs were each incubated at concentration of 1, 2 or 5 ng/reaction. Electrophoretic gel mobility shift assay (EMSA) was performed as previously described. Chu et al. (1999) Immunity 11:721-731; and Li et al., 1999, supra). In vitro IKK kinase assays were performed using purified IKK derived from Sf9 insect cell lysates as was previously described. Zandi et al. (1998) Science 281:1360-1363.

With 5′-TGACTGTGAACGTTCGAGATGA-3′ [ISS-ODN] the “induction of IL-6 and IL-12 mRNAs” value ([1]; DNA-PKcs-deficient BMDM) was “Little induction”, the “induction of IL-6 and IL-12 mRNA (Northern blot)” value ([1]; Ku70-/- or Ku80-/- BMDM, 6.5 hours) was “lack of induction” and the “DNA-PK activity in vitro (phosphorylation of the N-terminal portion of p53)” value [2] was “stimulated DNA-PK activity”.
